# ChEMBL document CHEMBL1201862, “PubChem BioAssay data set” (2004)
# Activity calls are given as the source filed them.
# Experiments:
# [1] = biological target: T1, RNA-binding protein pos-1 (Caenorhabditis elegans, UniProt G5EF15); experiment: inhibitors of POS-1/mex-3 RNA binding, dose response, biochemical, fluorescence polarization (AID 1964);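 also: purified POS-1 fused to maltose binding protein made in E. coli; potency of compounds blocking POS-1 binding to fluorescent RNA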
# T1 sequence (G5EF15 whole entry): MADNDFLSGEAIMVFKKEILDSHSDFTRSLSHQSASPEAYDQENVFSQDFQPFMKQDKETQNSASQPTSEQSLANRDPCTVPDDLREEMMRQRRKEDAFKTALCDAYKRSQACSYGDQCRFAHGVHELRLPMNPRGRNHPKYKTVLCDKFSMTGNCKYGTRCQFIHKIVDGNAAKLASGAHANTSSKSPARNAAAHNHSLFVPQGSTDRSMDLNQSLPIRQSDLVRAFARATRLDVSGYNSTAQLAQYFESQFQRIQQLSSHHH
# [2] = biological target: T2, Zinc finger protein mex-5 (Caenorhabditis elegans, UniProt Q9XUB2); experiment: MEX-5/TCR-2 RNA interaction inhibitors, dose response, biochemical, C. elegans, fluorescence polarization (AID 1960)
# T2 sequence (Q9XUB2 whole entry): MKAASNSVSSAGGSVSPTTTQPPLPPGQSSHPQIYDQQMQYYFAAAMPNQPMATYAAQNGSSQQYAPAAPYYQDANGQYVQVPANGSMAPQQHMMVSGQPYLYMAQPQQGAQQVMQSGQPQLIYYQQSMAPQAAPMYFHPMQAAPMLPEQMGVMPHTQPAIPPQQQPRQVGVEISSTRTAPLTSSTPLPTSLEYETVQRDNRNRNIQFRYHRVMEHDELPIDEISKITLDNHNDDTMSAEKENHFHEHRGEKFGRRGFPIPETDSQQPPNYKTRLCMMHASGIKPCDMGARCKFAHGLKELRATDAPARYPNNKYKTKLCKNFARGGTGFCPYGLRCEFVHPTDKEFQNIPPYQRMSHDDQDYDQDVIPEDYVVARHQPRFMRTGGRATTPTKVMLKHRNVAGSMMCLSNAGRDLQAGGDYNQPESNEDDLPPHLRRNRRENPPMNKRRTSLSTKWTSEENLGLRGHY
# Large T antigen = Large T antigen (Simian virus 40, UniProt P03070); assay type: functional, Betapolyomavirus macacae;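 also: Confirmatory-stage PubChem screen for compounds that inhibit SV40 T antigen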
# [3] = biological target: T3, Replicative DNA helicase DnaB (Mycobacterium tuberculosis, UniProt P9WMR3); experiment: DnaB intein splicing inhibitors, dose response, biochemical, cell-free fluorescence (AID 449749); assay type: functional
# T3 sequence (P9WMR3 whole entry): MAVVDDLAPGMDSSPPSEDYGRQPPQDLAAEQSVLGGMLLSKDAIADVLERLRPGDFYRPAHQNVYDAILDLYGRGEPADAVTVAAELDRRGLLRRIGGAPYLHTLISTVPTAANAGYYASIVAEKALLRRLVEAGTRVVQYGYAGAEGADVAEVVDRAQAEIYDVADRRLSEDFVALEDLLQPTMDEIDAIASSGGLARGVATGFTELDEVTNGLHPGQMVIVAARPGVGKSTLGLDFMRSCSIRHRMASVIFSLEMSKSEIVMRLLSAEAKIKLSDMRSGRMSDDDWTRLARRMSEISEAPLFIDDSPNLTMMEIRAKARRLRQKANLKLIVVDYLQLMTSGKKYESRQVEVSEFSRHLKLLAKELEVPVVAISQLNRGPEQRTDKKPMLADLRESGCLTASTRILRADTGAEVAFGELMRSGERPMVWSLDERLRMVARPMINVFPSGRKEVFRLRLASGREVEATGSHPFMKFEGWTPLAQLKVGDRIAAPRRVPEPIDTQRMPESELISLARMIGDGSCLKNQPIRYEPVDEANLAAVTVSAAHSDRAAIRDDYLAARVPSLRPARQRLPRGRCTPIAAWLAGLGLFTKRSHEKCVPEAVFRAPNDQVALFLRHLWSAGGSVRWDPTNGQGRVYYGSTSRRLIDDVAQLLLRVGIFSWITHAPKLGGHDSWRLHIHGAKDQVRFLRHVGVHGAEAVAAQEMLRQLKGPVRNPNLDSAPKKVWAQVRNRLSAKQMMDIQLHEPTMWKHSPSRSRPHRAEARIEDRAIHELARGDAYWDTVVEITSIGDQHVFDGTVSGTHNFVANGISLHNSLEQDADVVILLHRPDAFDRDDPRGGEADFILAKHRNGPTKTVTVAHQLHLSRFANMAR
# Protein RecA = biological target: T4, Protein RecA (Mycobacterium tuberculosis, UniProt P9WHJ3); experiment: Fluorescence Cell-Free Homogeneous Dose Retest to Identify Inhibitors of RecA-Intein Splicing Activity. [Related pubchem assays (depositor defined):AID2097, AID2223, AID489010, AID492950]; assay type: functional
# T4 sequence (P9WHJ3 whole entry): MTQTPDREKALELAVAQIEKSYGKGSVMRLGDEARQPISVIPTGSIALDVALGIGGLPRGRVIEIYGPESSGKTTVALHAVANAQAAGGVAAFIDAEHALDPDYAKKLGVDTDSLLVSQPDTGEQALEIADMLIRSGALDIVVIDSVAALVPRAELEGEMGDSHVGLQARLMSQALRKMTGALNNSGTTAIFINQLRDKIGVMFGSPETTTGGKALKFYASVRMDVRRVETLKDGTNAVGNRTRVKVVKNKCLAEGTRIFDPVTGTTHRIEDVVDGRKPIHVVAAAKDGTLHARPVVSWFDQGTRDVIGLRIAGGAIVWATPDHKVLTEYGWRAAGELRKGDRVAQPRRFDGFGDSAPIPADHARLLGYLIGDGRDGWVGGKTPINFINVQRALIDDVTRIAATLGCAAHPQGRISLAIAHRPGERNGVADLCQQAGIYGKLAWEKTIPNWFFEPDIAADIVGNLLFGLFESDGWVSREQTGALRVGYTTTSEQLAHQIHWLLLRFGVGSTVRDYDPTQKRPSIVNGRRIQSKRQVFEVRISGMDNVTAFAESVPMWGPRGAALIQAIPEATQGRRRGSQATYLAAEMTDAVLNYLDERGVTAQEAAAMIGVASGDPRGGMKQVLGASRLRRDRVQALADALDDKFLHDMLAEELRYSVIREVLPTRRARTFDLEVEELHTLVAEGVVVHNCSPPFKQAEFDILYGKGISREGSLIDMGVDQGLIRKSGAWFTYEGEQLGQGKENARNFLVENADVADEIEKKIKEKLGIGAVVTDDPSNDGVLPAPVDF
# [4] = biological target: T5, Sentrin-specific protease 8 (Homo sapiens, UniProt Q96LD8); assay type: functional
# T5 sequence (Q96LD8 whole entry): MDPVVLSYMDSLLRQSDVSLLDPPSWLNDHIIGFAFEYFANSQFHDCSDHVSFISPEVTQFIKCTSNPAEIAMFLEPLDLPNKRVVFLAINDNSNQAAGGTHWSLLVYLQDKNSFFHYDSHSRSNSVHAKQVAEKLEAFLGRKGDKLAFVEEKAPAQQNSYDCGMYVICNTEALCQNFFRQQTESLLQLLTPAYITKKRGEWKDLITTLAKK
# [5] = biological target: T5, Sentrin-specific protease 8; assay type: functional; remark: listed apart in the source
# [6] = biological target: Botulinum neurotoxin type F (Clostridium botulinum, UniProt P30996); experiment: High-throughput multiplex microsphere dose response for inhibitors of toxin protease, specifically Botulinum neurotoxin light chain F protease, compounds from Cherry Pick 02.; assay type: functional; conditions: read-out: EC50_MICROM
# [7] = inhibitors of intracellular T. cruzi replication, confirmation, NIH3T3 host cells, beta-gal luminescence (AID 2044); assay type: functional, cell-based;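 also: intracellular parasites grown in NIH/3T3 mouse fibroblasts as host cells; luminescent beta-galactosidase reporter signal from transgenic T. cruzi replicating inside host cells; inhibitors lower the luminescence signal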
# [8] = growth suppression of PTEN-null colon cells, dose response, cell-based, HCT116 PTEN knockout (AID 1047); assay type: functional;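 also: HCT116 colon tumor cells with PTEN knocked out; cells exposed to compound for 60 hours before readout; potency for loss of cell viability measured by luminescence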
# [9] = cytotoxicity toward NIH3T3 fibroblasts, dose response, counter-screen, cell-based, ATP luminescence, mouse fibroblasts (AID 2010); assay type: functional;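 also: cells exposed to compound for about 90 hours before reading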
# [10] = growth suppression of beta-catenin-knockout colon cells, dose response, cell-based, HCT116, human colon tumor (AID 1045); assay type: functional;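 also: HCT116 colon tumor cells with beta catenin knocked out; cells exposed to compound for 60 hours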
# Nonstructural protein 1 = Nonstructural protein 1 (Influenza A virus, UniProt Q194T2); assay type: functional, Influenza A virus (A/California/07/2009(H1N1))
# [11] = biological target: DNA (cytosine-5)-methyltransferase 1 (Homo sapiens, UniProt P26358); experiment: DNMT1 methyltransferase inhibitors, confirmation, biochemical, fluorescent molecular beacon (AID 602386); assay type: functional
# [12] = DNA binding of candidate compounds, dose response, artefact control for RAD54 inhibitor project, biochemical, fluorescence polarization, cherry-pick (AID 651673); assay type: functional
# [13] = biological target: T6, DNA repair and recombination protein RAD54-like (Homo sapiens, UniProt Q92698); experiment: inhibitors of human RAD54 branch migration, confirmation, biochemical, fluorescence, cherry-picked samples, dose series (AID 651657); assay type: functional
# T6 sequence (Q92698 whole entry): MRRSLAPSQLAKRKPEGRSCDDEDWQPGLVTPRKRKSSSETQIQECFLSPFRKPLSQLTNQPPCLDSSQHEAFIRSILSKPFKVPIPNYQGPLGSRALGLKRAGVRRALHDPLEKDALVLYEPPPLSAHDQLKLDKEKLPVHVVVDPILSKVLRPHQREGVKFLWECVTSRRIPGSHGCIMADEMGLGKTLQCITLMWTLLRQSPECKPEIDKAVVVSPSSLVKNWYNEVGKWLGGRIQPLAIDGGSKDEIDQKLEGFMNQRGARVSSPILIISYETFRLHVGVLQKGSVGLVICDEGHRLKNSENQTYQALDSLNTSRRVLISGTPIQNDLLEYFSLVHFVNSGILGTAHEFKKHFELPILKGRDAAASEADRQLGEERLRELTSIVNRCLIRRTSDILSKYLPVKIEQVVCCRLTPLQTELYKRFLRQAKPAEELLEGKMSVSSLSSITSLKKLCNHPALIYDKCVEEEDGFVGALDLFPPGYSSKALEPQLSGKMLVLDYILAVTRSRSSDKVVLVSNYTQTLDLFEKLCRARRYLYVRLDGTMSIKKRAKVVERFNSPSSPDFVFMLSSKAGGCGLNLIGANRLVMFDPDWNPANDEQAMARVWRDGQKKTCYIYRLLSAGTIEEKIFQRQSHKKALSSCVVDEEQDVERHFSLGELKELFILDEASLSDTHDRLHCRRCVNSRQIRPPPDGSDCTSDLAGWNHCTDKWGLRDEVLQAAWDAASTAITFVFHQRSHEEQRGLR
# [14] = biological target: SWI/SNF-related matrix-associated actin-dependent regulator of chromatin subfamily A member 2 (Homo sapiens, UniProt P51531); experiment: Luminescence-based cell-based high throughput dose response assay to identify activators of the function of SWI/SNF related, matrix associated, actin dependent regulator of chromatin, subfamily a, member 2 (SMARCA2, BRM).; assay type: functional
# [15] = Counterscreen for activators of the function of SWI/SNF related, matrix associated, actin dependent regulator of chromatin, subfamily a, member 2 (SMARCA2, BRM): Luminescence-based cell-based high throughput dose response assay to identify non-selective compounds using the VP16 reporter assay.; assay type: functional
# Nonstructural protein 1, sequence (Q194T2 whole entry): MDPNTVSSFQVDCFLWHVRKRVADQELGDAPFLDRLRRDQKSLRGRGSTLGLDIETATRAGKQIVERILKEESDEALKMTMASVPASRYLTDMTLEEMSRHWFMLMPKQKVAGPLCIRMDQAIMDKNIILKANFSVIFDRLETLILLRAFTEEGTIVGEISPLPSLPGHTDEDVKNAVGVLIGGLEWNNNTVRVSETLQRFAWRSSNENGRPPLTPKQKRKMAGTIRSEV
# DNA (cytosine-5)-methyltransferase 1, sequence (P26358 whole entry): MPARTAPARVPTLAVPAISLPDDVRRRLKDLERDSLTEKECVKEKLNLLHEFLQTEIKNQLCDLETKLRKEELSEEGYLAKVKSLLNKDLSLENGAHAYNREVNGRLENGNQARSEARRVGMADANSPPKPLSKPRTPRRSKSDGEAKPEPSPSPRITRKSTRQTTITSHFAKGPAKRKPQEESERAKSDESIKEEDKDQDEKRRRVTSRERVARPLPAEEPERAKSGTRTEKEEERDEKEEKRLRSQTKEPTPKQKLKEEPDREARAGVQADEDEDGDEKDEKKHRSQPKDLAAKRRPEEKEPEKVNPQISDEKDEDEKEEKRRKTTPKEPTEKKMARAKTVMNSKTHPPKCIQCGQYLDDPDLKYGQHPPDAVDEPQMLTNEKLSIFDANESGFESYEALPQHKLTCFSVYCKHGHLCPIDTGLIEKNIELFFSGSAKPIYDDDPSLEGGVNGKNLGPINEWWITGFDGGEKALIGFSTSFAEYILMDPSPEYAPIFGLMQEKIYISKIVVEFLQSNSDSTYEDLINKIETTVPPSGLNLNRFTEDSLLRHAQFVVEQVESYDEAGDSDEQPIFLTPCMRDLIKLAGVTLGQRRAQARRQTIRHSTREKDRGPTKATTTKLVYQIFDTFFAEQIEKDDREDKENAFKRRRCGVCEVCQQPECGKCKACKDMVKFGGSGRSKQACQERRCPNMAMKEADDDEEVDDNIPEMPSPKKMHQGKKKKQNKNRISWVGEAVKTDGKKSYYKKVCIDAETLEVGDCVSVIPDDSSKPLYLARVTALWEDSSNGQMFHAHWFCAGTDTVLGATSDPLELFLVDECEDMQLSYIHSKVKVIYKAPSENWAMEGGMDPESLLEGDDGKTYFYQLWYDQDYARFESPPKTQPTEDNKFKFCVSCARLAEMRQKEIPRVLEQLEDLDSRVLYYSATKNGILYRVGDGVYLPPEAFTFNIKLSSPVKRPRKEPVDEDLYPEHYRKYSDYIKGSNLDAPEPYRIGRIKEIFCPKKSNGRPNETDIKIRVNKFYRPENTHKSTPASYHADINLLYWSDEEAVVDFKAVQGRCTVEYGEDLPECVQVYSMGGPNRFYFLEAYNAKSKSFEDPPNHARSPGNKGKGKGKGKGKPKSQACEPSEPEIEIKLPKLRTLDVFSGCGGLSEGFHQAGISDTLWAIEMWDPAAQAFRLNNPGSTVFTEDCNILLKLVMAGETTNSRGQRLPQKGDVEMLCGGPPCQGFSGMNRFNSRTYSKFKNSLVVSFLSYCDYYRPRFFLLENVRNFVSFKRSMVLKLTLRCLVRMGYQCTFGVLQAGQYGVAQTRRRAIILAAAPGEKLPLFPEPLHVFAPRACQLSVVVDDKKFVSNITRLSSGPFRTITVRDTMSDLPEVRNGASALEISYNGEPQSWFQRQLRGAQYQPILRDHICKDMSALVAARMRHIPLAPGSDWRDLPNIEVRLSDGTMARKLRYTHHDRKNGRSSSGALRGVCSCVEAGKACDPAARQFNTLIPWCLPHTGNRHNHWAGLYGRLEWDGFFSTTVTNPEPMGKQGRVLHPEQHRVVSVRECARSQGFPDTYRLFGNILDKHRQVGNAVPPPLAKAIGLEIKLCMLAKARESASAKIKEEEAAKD
# Large T antigen, sequence (P03070 whole entry): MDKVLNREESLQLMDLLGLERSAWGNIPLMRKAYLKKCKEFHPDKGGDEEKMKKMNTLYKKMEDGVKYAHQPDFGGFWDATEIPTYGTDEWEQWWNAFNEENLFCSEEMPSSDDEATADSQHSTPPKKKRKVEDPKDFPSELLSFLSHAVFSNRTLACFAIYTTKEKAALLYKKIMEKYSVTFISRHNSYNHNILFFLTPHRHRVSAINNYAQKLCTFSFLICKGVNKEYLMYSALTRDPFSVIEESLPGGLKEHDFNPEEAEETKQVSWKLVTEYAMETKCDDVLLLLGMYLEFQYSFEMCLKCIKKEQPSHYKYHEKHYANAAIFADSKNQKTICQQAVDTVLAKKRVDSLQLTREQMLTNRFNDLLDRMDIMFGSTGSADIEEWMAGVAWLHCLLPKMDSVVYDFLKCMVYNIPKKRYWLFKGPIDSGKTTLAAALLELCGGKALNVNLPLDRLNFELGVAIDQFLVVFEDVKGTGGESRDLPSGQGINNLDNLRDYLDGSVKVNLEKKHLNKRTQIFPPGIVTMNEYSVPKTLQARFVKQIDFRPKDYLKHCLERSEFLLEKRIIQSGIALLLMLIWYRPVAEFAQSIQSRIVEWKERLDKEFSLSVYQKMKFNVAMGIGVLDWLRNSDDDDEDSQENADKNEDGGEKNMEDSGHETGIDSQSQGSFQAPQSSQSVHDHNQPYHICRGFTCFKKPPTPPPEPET
# SWI/SNF-related matrix-associated actin-dependent regulator of chromatin subfamily A member 2, sequence (P51531 whole entry): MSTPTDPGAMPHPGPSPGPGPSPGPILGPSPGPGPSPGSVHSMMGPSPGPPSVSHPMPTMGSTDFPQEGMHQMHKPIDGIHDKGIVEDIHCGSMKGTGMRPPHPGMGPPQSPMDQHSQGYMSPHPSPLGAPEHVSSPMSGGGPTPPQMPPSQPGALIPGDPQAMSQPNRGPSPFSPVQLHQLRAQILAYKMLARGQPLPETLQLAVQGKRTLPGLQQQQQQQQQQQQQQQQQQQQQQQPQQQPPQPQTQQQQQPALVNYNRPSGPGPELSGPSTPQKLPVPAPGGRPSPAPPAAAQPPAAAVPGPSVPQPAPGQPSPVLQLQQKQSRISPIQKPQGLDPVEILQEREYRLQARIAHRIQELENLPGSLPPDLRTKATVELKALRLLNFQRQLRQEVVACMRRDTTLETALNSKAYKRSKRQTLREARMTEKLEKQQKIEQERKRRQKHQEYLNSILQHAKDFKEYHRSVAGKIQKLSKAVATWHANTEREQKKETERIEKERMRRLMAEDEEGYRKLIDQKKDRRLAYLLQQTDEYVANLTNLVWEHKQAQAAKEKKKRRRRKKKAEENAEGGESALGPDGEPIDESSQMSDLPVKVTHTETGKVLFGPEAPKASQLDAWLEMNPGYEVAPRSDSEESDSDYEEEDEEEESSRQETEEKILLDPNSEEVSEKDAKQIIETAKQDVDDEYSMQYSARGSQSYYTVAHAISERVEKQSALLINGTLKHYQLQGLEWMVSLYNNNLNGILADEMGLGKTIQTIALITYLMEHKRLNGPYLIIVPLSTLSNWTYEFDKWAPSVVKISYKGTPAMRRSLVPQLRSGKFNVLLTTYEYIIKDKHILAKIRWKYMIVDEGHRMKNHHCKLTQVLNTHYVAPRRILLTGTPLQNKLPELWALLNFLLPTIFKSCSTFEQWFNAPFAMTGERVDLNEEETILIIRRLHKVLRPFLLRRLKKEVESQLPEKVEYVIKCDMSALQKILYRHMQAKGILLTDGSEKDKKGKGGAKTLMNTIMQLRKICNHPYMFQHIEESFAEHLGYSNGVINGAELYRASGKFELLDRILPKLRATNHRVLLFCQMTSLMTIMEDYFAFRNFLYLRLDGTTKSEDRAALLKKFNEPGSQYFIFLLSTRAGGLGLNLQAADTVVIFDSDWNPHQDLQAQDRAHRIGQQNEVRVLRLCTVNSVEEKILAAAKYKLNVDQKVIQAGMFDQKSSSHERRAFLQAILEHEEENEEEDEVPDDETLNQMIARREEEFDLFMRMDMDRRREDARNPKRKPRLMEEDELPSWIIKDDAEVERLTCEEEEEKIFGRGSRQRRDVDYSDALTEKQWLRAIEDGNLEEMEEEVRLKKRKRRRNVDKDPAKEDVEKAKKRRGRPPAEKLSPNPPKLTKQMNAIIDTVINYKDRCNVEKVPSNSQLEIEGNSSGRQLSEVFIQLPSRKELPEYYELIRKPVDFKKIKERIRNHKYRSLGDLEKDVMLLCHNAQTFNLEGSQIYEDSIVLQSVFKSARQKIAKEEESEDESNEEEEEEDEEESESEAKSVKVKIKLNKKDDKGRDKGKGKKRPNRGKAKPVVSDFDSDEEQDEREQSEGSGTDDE
# Botulinum neurotoxin type F, sequence (P30996 1-436 limits assumed): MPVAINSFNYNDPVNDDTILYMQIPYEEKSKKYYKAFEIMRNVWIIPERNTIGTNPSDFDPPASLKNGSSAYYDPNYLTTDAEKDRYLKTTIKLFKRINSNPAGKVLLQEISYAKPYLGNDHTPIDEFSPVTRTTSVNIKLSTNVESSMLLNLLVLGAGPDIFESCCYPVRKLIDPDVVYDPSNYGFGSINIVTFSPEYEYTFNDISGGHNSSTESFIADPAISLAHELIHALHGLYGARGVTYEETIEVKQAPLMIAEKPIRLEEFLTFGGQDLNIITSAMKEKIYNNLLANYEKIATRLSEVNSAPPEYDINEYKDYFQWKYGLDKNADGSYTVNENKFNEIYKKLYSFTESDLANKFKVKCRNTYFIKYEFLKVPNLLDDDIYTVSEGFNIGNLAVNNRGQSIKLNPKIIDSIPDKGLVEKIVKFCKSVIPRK
smiles,measurement,setting,value
CCOc1cc(C(c2c(C)[nH][nH]c2=O)c2c(C)[nH][nH]c2=O)ccc1O,EC50,[1],57.9 µM (active)
same,EC50,[2],107 µM (active)
same,IC50,Large T antigen,> 100 µM (active)
same,AC50,[3],0.302 µM (active)
same,EC50,Protein RecA,0.24 µM (active)
same,IC50,[4],16.2 µM (active)
same,IC50,[5],21.4 µM (active)
COc1ccccc1Cc1c(-c2ccc(C)cc2)nc2cc(C)c(Br)c(C)n12,EC50,[6],> 20 µM (inactive)
CCN(CC)CCNc1nc2cc(OC)c(OC)cc2c2nc(-c3ccccc3)nn12,EC50,[7],0.678 µM (active)
same,EC50,[8],4.9 µM (active)
same,EC50,[9],> 30 µM (not active)
same,EC50,[10],3.48 µM (active)
same,IC50,Nonstructural protein 1,> 100 µM (active)
same,IC50,[11],> 99 µM (inactive)
same,AC50,[12],51.8 µM (active)
same,AC50,[13],1.92 µM (active)
same,EC50,[14],> 91.2 µM (inactive)
same,EC50,[15],> 91.2 µM (inactive)
